Ten compounds from patent publication US20180147223A1 (priority 2016, published 2018) can be followed below.

“And” between values parts separate entries of the source, which are not always exact repeats. Identical values can stand only once.

The target of assay [1] is recombinant light chain A (rLCA) (Clostridium botulinum, UniProt P0DPI0). The assay can be described thus: biochemical. The arrangement: species or system C. botulinum.
The target of a further assay is BoNT/A LC (Clostridium botulinum, UniProt P0DPI0). The assay can be described thus: biochemical. It is filed as biochemical, C. botulinum. The note with it: for inhibition at 100 µM: read-out: % of Inhibition at 100 μM.
The target of the next assay is BoNT/A (Clostridium botulinum, UniProt P0DPI0). It is filed as cell-based, C. botulinum.
In another assay the target is LC of BoNT/A (Clostridium botulinum, UniProt P0DPI0). The assay can be described thus: biochemical. It is filed as biochemical, C. botulinum.
LC of BoNT/A, sequence (P0DPI0 2-448 limits assumed): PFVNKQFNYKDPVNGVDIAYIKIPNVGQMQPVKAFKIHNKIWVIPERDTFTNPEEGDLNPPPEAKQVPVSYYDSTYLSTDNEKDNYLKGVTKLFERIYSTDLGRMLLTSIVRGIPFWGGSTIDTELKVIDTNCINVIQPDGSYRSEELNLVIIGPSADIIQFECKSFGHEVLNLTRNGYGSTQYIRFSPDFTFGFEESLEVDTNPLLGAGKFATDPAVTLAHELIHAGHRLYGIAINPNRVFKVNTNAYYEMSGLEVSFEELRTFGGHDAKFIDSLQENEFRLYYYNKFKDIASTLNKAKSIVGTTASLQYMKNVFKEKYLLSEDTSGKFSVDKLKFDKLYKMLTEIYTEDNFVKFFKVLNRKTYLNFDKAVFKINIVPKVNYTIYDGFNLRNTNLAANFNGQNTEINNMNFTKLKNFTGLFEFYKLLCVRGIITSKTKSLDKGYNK

BoNT/A LC, sequence (P0DPI0 2-448 limits assumed): as above
recombinant light chain A (rLCA), sequence (P0DPI0 2-448 limits assumed): as above
BoNT/A, sequence (P0DPI0 whole entry, looked up): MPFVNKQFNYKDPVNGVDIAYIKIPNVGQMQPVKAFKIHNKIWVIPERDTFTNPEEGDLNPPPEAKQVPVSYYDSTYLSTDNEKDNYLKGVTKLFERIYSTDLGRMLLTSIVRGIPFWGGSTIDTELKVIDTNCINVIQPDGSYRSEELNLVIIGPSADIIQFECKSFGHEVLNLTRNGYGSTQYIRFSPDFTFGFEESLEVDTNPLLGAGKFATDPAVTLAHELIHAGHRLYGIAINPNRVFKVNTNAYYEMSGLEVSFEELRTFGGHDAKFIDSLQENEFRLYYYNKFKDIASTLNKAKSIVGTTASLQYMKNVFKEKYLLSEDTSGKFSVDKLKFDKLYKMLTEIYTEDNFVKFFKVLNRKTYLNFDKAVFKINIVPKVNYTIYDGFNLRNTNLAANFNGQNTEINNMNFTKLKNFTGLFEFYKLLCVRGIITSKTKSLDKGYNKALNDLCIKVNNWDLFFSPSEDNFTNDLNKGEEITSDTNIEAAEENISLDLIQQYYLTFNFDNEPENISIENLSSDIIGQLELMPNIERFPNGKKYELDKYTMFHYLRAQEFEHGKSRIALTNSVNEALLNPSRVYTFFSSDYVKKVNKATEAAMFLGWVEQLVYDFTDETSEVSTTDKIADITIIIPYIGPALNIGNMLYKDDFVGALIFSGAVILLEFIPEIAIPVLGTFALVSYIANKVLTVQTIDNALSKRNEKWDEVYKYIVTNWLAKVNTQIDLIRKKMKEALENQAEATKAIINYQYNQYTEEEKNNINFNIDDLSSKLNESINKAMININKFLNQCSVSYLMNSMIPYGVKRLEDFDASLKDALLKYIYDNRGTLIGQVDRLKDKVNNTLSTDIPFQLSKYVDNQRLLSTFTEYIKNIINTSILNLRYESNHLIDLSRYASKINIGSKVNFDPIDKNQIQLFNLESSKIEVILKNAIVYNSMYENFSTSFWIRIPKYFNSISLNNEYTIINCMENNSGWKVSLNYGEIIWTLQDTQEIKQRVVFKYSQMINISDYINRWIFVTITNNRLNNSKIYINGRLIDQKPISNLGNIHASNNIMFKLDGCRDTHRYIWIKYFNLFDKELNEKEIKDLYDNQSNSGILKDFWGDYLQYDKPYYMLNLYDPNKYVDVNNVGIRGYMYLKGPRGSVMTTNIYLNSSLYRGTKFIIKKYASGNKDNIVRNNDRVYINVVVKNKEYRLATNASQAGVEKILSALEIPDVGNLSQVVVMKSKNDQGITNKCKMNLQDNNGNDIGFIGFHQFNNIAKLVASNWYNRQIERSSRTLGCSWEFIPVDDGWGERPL

For orientation: IC50 means the point on the concentration scale where inhibition reaches its midpoint. Usually inhibition stands for the relative decrease from the control value, in per cent. For `CCCCCCCCCCCC1=C(O)C(=O)C=C(O)C1=O` [Compound 5, 2,5-dihydroxy-3-undecylcyclohexa-2,5-diene-1,4-dione], the concentration for half-maximal inhibition (IC50) in assay [1] stood at 13.5 µM; against BoNT/A LC, 4.5 ± 0.035 µM. In addition, on BoNT/A LC, the inhibition at 100 µM was 100%.

For the compound `Cc1cc2c(C(C)C)c(O)c(O)c(C=O)c2c(O)c1-c1c(C)cc2c(C(C)C)c(O)c(O)c(C=O)c2c1O` [Compound 4, 2, 2′-Bis(formyl-1,6,7-trihydroxy-5-isopropyl-3-methylnaphthalene)], the IC50 came to 11.4 µM in assay [1] and 3.15 ± 0.043 µM against BoNT/A LC. Besides, the inhibition at 100 µM on BoNT/A LC came to 100%.

As to `O=c1oc2c3c4c(cc2c2c1CCC2)CCCN4CCC3` [Compound 9, 2,3,6,7,10,11-Hexahydro-1H,5H-cyclopenta[3,4][1]benzopyrano[6,7,8-ij]quinolizin-12(9H)-one], in assay [1], the 50% inhibitory concentration (IC50) is above 20 µM. Further, on BoNT/A LC, the IC50 is 9.3 ± 1.59 µM and the inhibition at 100 µM was determined as 83.3%. Moreover, the “inhibition of endogenous SNAP-25 cleavage in M-17-TR2 cells” value (“inhibition … in M-17-TR2 cells” below) against BoNT/A is on record as “significantly inhibit”.

On to `O=C1C=C2CC3(O)COc4c(ccc(O)c4O)C3=C2C=C1O` (stereo not drawn) [Compound 3, 3,4,6a, 10-Tetrahydroxy-6,7-dihydroindeno[2,1-c]chromen-9-one], for which the IC50 in assay [1] came to 0.86 µM. Further, at BoNT/A LC, the concentration for half-maximal inhibition (IC50) was determined as 2.97 ± 0.048 µM and the inhibition at 100 µM worked out at 92.7%. For the same compound, at BoNT/A, the “inhibition … in M-17-TR2 cells” value is recorded as “significantly inhibit”.

Consider `O=c1c(O)c(-c2ccc(O)c(O)c2)oc2c(O)c(O)cc(O)c12` [Compound 10, 2-(3,4-dihydroxyphenyl)-3,5,7,8-tetrahydroxychromen-4-one], for which the IC50 in assay [1] was 0.239 µM. For the same compound, at BoNT/A LC, the IC50 came to 0.27 ± 0.0049 µM and the inhibition at 100 µM was 104%. Moreover, on BoNT/A, the “inhibition … in M-17-TR2 cells” value is “significantly inhibit”.

A word on the Ki: it is a dissociation constant, usually derived from enzyme kinetics or from competition with a known ligand. High values mean weaker binding, low ones tighter binding. As for `O=c1ccc2cc3c(-c4ccc([N+](=O)[O-])cc4)coc3cc2o1` [Compound 1, 3-(4-nitrophenyl)-7H-furo[3,2-g][1]benzopyran-7-one], the half-inhibitory concentration (IC50) in assay [1] stood at 10 µM. Also, at BoNT/A LC, the IC50 amounted to 6.5 µM, the “concentration at which near 100% inhibition (saturation) is reached” value was “about 81 μM” and the inhibition at 100 µM came out at 100%. On BoNT/A, the “inhibition of SNAP-25 cleavage by BoNT/A in M17 cells” value was “showed inhibition” and the “inhibition … in M-17-TR2 cells” value is on record as “significantly inhibit”. For the same compound, on LC of BoNT/A, the Vmax is 2.064 RFU/s and 2.79 RFU/s and 2.55 RFU/s; the type of inhibition result is “non-competitive inhibition”; the α is 2.76 (±1.12) and 1.38 (±0.33) and 1.8 (±0.30); the “α′” value was 1.705 (±0.79) and 1.155 (±0.18) and 1.24 (±0.12). In addition, the Ki on LC of BoNT/A (Ki value) was 14.2 µM and 17.5 µM and 14.7 µM.

As to `O=C(O)CCCCC1CCSS1` (stereo not drawn) [Compound 7, 5-(1,2-Dithiolan-3-yl)-pentanoic acid], in assay [1], the half-maximal inhibitory concentration (IC50) was above 20 µM. At BoNT/A LC, it took 5.06 ± 0.055 µM to reach half-maximal inhibition (IC50) and the inhibition at 100 µM was found to be 90.5%.

For the compound `O=c1oc2c(O)c(O)cc3c(=O)oc4c(O)c(O)cc1c4c23` [Compound 2, 2,3,7,8-Tetrahydroxy-chromeno[5,4,3-cde]chromene-5,10-dione], the 50% inhibitory concentration (IC50) in assay [1] was 1.62 µM; against BoNT/A LC, 0.65 ± 0.032 µM. Also, at BoNT/A LC, the inhibition at 100 µM is 101%.

Regarding `Cc1c(C(=O)O)c(O)cc2c1C(=O)c1c(O)c([C@@H]3O[C@H](CO)[C@@H](O)[C@H](O)[C@H]3O)c(O)c(O)c1C2=O` [Compound 8, carminic acid], the IC50 in assay [1] is above 20 µM. On BoNT/A LC, the IC50 came to 6.8 ± 0.035 µM and the inhibition at 100 µM is 85.1%.

For `O=C1c2ccccc2C(=O)c2c(O)c(O)cc(O)c21` [Compound 6, 1,2,4-trihydroxyanthracene-9,10-dione], the IC50 in assay [1] was 11.6 µM. Further, on BoNT/A LC, it took 4.5 ± 0.0091 µM to reach half-maximal inhibition (IC50) and the inhibition at 100 µM was 100%. Also, the “inhibition … in M-17-TR2 cells” value on BoNT/A was “significantly inhibit”.
